Source: ChEMBL document CHEMBL5385934, “Identification of two novel chemical classes of Autotaxin (ATX) inhibitors using Enalos Asclepios KNIME nodes” (Bioorg Med Chem Lett, 2024)
Calls of active or inactive are those of the source. The calls are words filed in the database; no cut-off is given here.

Tests used:
Autotaxin [1] = molecular target: T1, Autotaxin (Homo sapiens, UniProt Q13822); experiment: Inhibition of human ATX at 100 uM by Amplex Red assay relative to control
Autotaxin [2] = molecular target: T1, Autotaxin; experiment: Inhibition of human ATX by Amplex Red assay
Autotaxin [3] = molecular target: T1, Autotaxin; experiment: Inhibition of human ATX assessed as decrease in LPC hydrolysis by Amplex Red assay
Autotaxin [4] = molecular target: T1, Autotaxin; experiment: Inhibition of human ATX assessed as decrease in LPC hydrolysis upto 2.5 uM by Amplex Red assay

O=C(CSc1nnc(-c2ccco2)o1)N1c2ccccc2Sc2ccc(Cl)cc21
inhibition (Autotaxin [1]): 87% | IC50 (Autotaxin [2]): 9.41 µM | inhibition (Autotaxin [3]): Active | inhibition (Autotaxin [4]): Active

Cc1nc(Nc2cccc(C3CCCN3C(=O)c3n[nH]c4c3CCCC4)n2)sc1C (stereo not drawn)
inhibition (Autotaxin [1]): 85% | IC50 (Autotaxin [2]): 2.53 µM | inhibition (Autotaxin [3]): Active | inhibition (Autotaxin [4]): Active
